Consider 16 compounds from patent publication US20060089375A1, “Pyrazolo[3,4-b] pyridine compounds, and their use as phosphodiesterase inhibitors” (priority 2002, published 2006).

For one series, the target named is T1, PDE4B (human recombinant) (Homo sapiens, UniProt Q07343).
T1 construct: made in house
T1 sequence (Q07343 1-564 isoform Q07343-2): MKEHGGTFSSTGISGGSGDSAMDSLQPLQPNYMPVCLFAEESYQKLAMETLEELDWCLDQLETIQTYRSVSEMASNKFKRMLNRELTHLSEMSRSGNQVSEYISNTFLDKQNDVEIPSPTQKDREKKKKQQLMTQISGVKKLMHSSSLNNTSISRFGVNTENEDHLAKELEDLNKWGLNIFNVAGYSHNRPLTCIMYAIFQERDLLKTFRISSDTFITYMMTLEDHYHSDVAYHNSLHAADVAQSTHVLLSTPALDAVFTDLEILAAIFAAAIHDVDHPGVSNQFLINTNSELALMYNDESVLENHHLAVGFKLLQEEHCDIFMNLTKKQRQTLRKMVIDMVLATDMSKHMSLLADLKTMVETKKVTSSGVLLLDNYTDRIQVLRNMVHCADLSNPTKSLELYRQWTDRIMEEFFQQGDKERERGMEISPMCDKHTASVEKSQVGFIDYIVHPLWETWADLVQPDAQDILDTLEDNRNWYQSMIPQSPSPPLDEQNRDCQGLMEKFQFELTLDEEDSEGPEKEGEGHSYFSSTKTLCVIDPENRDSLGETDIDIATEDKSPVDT
Kind of series: Inhibition of PDE4B activity: radioactive SPA or IMAP Fluorescence Polarisation (FP) assay. It is filed as biochemical. The following applies: PDE4B inhibitory activity, one reading or average of ca. 2-6 readings, read-out: PDE4B pIC50 (± about 0.5) (converted). The text has this:
Human recombinant PDE4B, in particular the 2B splice variant thereof (HSPDE4B2B), is disclosed in WO 94/20079 and also M. M. McLaughlin et al., “A low Km, rolipram-sensitive, cAMP-specific phosphodiesterase from human brain: cloning and expression of cDNA, biochemical characterisation of recombinant protein, and tissue distribution of mRNA”, J. Biol. Chem., 1993, 268, 6470-6476. For example, in Example 1 of WO 94/20079, human recombinant PDE4B is described as being expressed in the PDE-deficient yeast Saccharomyces cerevisiae strain GL62, e.g. after induction by addition of 150 uM CuSO4, and 100,000×g supernatant fractions of yeast cell lysates are described for use in the harvesting of PDE4B enzyme.
The ability of compounds to inhibit catalytic activity at PDE4B or 4D (human recombinant), PDE3 (from bovine aorta), PDE5 (human recombinant) or PDE6 (from bovine retina) was determined by Scintillation Proximity Assay (SPA) in 96-well format. Test compounds (preferably as a solution in DMSO, e.g. 0.5 to 1 microlitre (ul) volume) were preincubated at ambient temperature (room temperature, e.g. 19-23° C.) in Wallac Isoplates (code 1450-514) with PDE enzyme in 50 mM Tris-HCl buffer pH 7.5, 8.3 mM MgCl2, 1.7 mM EGTA, 0.05% (w/v) bovine serum albumin for 10-30 minutes (usually 30 minutes). The enzyme concentration was adjusted so that no more than 20% hydrolysis of the substrate defined below occurred in control wells without compound, during the incubation. For the PDE3, PDE4B and PDE4D assays, [5′,8-^3H]Adenosine 3′,5′-cyclic phosphate (Amersham Pharmacia Biotech, code TRK.559; or Amersham Biosciences UK Ltd, Pollards Wood, Chalfont St Giles, Buckinghamshire HP8 4SP, UK) was added to give 0.05 uCi per well and ˜10 nM final concentration. For the PDE5 and PDE6 assays, [8-^3H]Guanosine 3′,5′-cyclic phosphate (Amersham Pharmacia Biotech, code TRK.392) was added to give 0.05 uCi per well and ˜36 nM final concentration. Plates, e.g. containing approx. 100 ul volume of assay mixture, were mixed on an orbital shaker for 5 minutes and incubated at ambient temperature for 1 hour. Phosphodiesterase SPA beads (Amersham Pharmacia Biotech, code RPNQ 0150) were added ([…] per well) to terminate the assay. Plates were sealed and shaken and allowed to stand at ambient temperature for 35 minutes to 1 hour (preferably 35 minutes) to allow the beads to settle. Bound radioactive product was measured using a WALLAC TRILUX 1450 Microbeta scintillation counter. For inhibition curves, 10 concentrations (1.5 nM-30 uM) of each compound were assayed. Curves were analysed using ActivityBase and XLfit (ID. Business Solutions Limited, 2 Ocean Court, Surrey Research Park, Guildford, Surrey GU2 7QB, United Kindgom) Results were expressed as pIC50 values.
The ability of compounds to inhibit catalytic activity at PDE4B (human recombinant) or PDE4D (human recombinant) was determined by IMAP Fluorescence Polarisation ([…]) assay (IMAP Explorer kit, available from Molecular Devices Corporation, Sunnydale, Calif., USA; Molecular Devices code: R^8062) in 384-well format. The IMAP FP assay is able to measure PDE activity in an homogenous, non-radioactive assay format. The FP assay uses the ability of immobilised trivalent metal cations, coated onto nanoparticles (tiny beads), to bind the phosphate group of Fl-AMP that is produced on the hydrolysis of fluorescein-labelled (Fl) cyclic adenosine mono-phosphate (Fl-cAMP) to the non-cyclic Fl-AMP form. […] Binding of Fl-AMP product to the beads (coated with the immobilised trivalent cations) slows the rotation of the bound Fl-AMP and leads to an increase in the fluorescence polarisation ratio of parallel to perpendicular light. Inhibition of the PDE reduces/inhibits this signal increase. […]
Take `CCn1ncc2c(NC3CCOCC3)c(C(=O)NCc3ccc(C)c(C)c3)cnc21` [Example 518, N-[(3,4-dimethylphenyl)methyl]-1-ethyl-4-(tetrahydro-2H-pyran-4-ylamino)-1H-pyrazolo[3,4-b]pyridine-5-carboxamide]: the IC50 is 0.1 to 6.31 nM.
The same measure, in the same setting: for `CCn1ncc2c(NC3CCOCC3)c(C(=O)NCc3ccccc3I)cnc21` [Example 638, 1-Ethyl-N-[(2-iodophenyl)methyl]-4-(tetrahydro-2H-pyran-4-ylamino)-1H-pyrazolo[3,4-b]pyridine-5-carboxamide] the value was 0.1 to 6.31 nM; for `CCn1ncc2c(NC3CCOCC3)c(C(=O)NCc3ccc(OC)c(OC)c3)cnc21` [Example 167, N-(3,4-Dimethoxybenzyl)-1-ethyl-4-(tetrahydro-2H-pyran-4-ylamino)-1H-pyrazolo[3,4-b)pyridine-5-carboxamide], 0.1 to 6.31 nM.
Still for that read-out and setting: for `CCn1ncc2c(NC3CCOCC3)c(C(=O)NCc3ccc(C)cc3)cnc21` [Example 528, 1-Ethyl-N-[(4-methylphenyl)methyl]-4-(tetrahydro-2H-pyran-4-ylamino)-1H-pyrazolol[3,4-b]pyridine-5-carboxamide] the value was 0.1 to 6.31 nM.
Consider `CCn1ncc2c(NC3CCOCC3)c(C(=O)NCc3ccc(Cl)cc3F)cnc21` [Example 622, N-[(4-Chloro-2-fluorophenyl)methyl]-1-ethyl-4-(tetrahydro-2H-pyran-4-ylamino)-IH-pyrazolo[3,4-b]pyridine-5-carboxamide], for which the IC50 is 0.1 to 6.31 nM.
For the compound `CCn1ncc2c(NC3CCC(=NO)CC3)c(C(=O)NCc3ccc(C)c(C)c3)cnc21` (stereo not shown) [Example 681, N-[(3,4-dimethylphenyl)methyl]-1-ethyl-4-{[4-(hydroxyimino)cyclohexyl]amino}-1H-pyrazolo[3,4-b]pyridine-5-carboxamide], the IC50 is 0.1 to 6.31 nM.
On to `CCn1ncc2c(NC3CCCCC3)c(C(=O)Nc3ccc(F)cc3)cnc21` [Example 48, 4-(Cyclohexylamino)-1-ethyl-N-(4-fluorophenyl)-1H-pyrazolo[3,4-b]pyridine-5-carboxamide], for which the IC50 is 12.6 to 100 nM.
The same measure, in the same setting: the same measure for `CCn1ncc2c(NC3CCC(=O)CC3)c(C(=O)NCc3ccc(C)cc3C)cnc21` [Example 260, N-[(2,4-dimethylphenyl)methyl]-1-ethyl-4-[(4-oxocyclohexyl)amino]-1H-pyrazolo[3,4-b]pyridine-5-carboxamide]: 0.1 to 6.31 nM; for `CCn1ncc2c(NC3CCC(=O)CC3)c(C(=O)NCc3ccc(C)c(Cl)c3)cnc21` [Example 678, N-[(3-Chloro-4-methylphenyl)methyl]-1-ethyl-4-[(4-oxocyclohexyl)amino]-1H-pyrazolo[3,4-b]pyridine-5-carboxamide]: 0.1 to 6.31 nM.
On the same count and under the same terms, for `CCn1ncc2c(NC3CCC(=NO)CC3)c(C(=O)NCc3ccc(OC)cc3)cnc21` (stereo not shown) [Example 653, 1-Ethyl-4-{[4-(hydroxyimino)cyclohexyl]amino}-N-{[4-(methyloxy)phenyl]methyl}-1H-pyrazolo[3,4-b]pyridine-5-carboxamide] the value was 0.1 to 6.31 nM.
In the case of `CCC(CC)CNC(=O)c1cnc2c(cnn2CC)c1NC1CCCC1` [Example 42, 4-(Cyclopentylamino)-1-ethyl-N-(2-ethylbutyl)-1H-pyrazolo[3,4-b]pyridine-5-carboxamide], the IC50 was 12.6 to 100 nM.
Take `CCn1ncc2c(NC3CCOCC3)c(C(=O)NCc3ccccc3)c(C)nc21` [Example 196, N-Benzyl-1-ethyl-6-methyl-4-(tetrahydro-2H-pyran-4-ylamino)-1H-pyrazolo[3,4-b]pyridine-5-carboxamide]: the IC50 was 12.6 nM.
On the same count and under the same terms, for `CCn1ncc2c(NC3CCOCC3)c(C(=O)NCc3ccc(C(C)C)cc3)cnc21` [Example 551, 1-Ethyl-N-{[4-(1-methylethyl)phenyl]methyl)-4-(tetrahydro-2H-pyran-4-ylamino)-1H-pyrazolo[3,4-b]pyridine-5-carboxamide] the value was 0.1 to 6.31 nM; for `CCn1ncc2c(NC3CCCCC3)c(C(=O)NCc3ccccc3)cnc21` [Example 40, N-Benzyl-4-(cyclohexylamino)-1-ethyl-1H-pyrazolo[3,4-b]pyridine-5-carboxamide], 5.01 nM; for `CCn1ncc2c(NC3CCOCC3)c(C(=O)NCc3cccc(C)c3C)cnc21` [Example 625, N-[(2,3-Dimethylphenyl)methyl]-1-ethyl-4-(tetrahydro-2H-pyran-4-ylamino)-1H-pyrazolo[3,4-b]pyridine-5-carboxamide], 0.1 to 6.31 nM.
Still for that read-out and setting: the same measure for `CCc1ccccc1CNC(=O)c1cnc2c(cnn2CC)c1NC1CCOCC1` [Example 619, 1-Ethyl-N-[(2-ethylphenyl)methyl]-4-(tetrahydro-2H-pyran-4-ylamino)-1H-pyrazolo[3,4-b]pyridine-5-carboxamide]: 0.1 to 6.31 nM.

Tested on in the next series: not listed separately
Kind of series: Particle size analysis of micronised material by laser diffraction (Malvern Mastersizer). Conditions: micronised material Procedure 2, material from collection vessel. The series is classed as physicochemical. From the text: For pharmaceutical compositions suitable and/or adapted for inhaled administration, it is preferred that the compound or salt of formula (I) is in a particle-size-reduced form, and more preferably the size-reduced form is obtained or obtainable by micronisation. Micronisation usually involves subjecting the compound/salt to collisional and abrasional forces in a fast-flowing circular or spiral/vortex-shaped airstream often including a cyclone component. The preferable particle size (e.g. D50 value) of the size-reduced (e.g. micronised) compound or salt is about 0.5 to about 10 microns, e.g. about 1 to about 5 microns (e.g. as measured using laser diffraction). For example, it is preferable for the compound or salt of formula (I to have a particle size defined by: a D10 of about 0.3 to about 3 microns (e.g. about 1 micron), and/or a D50 of about 1 to about 5 microns (e.g. about 2-5 or about 2-3 microns), and/or a D90 of about 2 to about 20 microns or about 3 to about 10 microns (e.g. about 5-8 or about 5-6 microns); for example as measured using laser diffraction. The laser diffraction measurement can use a dry method (suspension of compound/salt in airflow crosses laser beam) or a wet method [suspension of compound/salt in liquid dispersing medium, such as isooctane or (e.g. if compound soluble in isooctane) 0.1% Tween 80 in water, crosses laser beam]. With laser diffraction, particle size is preferably calculated using the Fraunhofer calculation; and/or preferably a Malvern Mastersizer or Sympatec apparatus is used for measurement.
Particle size analysis of Example 518 micronised material from Procedure 2, using laser diffraction measurement with Malvern Mastersizer longbed version, dispersing medium 0.1% Tween 80 in water, stir rate 1500 rpm, 3 mins sonification prior to final dispersion and analysis, 300 RF Reverse Fourier) lens, Fraunhofer calculation with Malvern software: • material from collection vessel: D10=0.97 microns, D50=3.86 microns, D90=12.64 microns. • material from inside walls of cyclone: D10=0.95 microns, D50=3.42 microns, D90=9.42 microns.
For the compound `CCn1ncc2c(NC3CCOCC3)c(C(=O)NCc3ccc(C)c(C)c3)cnc21` [Example 518, N-[(3,4-dimethylphenyl)methyl]-1-ethyl-4-(tetrahydro-2H-pyran-4-ylamino)-1H-pyrazolo[3,4-b]pyridine-5-carboxamide], the “particle size D10” value amounted to 0.97 microns, the “particle size D50” value is reported as 3.86 microns and the “particle size D90” value is 12.64 microns.

Staying with this series, now noted: micronised material Procedure 2, material from inside walls of cyclone.
For `CCn1ncc2c(NC3CCOCC3)c(C(=O)NCc3ccc(C)c(C)c3)cnc21` [Example 518, N-[(3,4-dimethylphenyl)methyl]-1-ethyl-4-(tetrahydro-2H-pyran-4-ylamino)-1H-pyrazolo[3,4-b]pyridine-5-carboxamide], the “particle size D10” value was 0.95 microns, the “particle size D50” value worked out at 3.42 microns and the “particle size D90” value was 9.42 microns.
